Measurements reported in the supplement of paper PMC10307832.

Tests used:
Test in all cases: relative viability (nuclei count vs DMSO), 5 days (fraction); higher = more cells survive
[1] = compound: CC1=C(C=C(C=C1)NC(=O)C2=CC(=CC=C2)C(C)(C)C#N)NC3=CC4=C(C=C3)N=CN(C4=O)C [AZ628] + CS(=O)(=O)N1CCN(Cc2cc3nc(-c4cccc5[nH]ncc45)nc(N4CCOCC4)c3s2)CC1 [Pictilisib] (partner 1 µM)
Method in brief: (§1)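 Lung cancer cell lines in 1536-well plates were dosed by pin tool the day after seeding, either with one drug alone or with a fixed anchor-drug dose plus five library-drug doses (not always all listed) in √10 steps. After 5 days, cells were fixed and their nuclei stained in one step (final 0.05% Triton X-100, 1% formaldehyde, 1 ug/ml Hoechst), then counted on 4× images. Relative viability is the nuclei count in treated wells divided by that in vehicle wells. Values are medians of duplicate plates.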

[2] = compound: CC1=C(C=C(C=C1)NC(=O)C2=CC(=CC=C2)C(C)(C)C#N)NC3=CC4=C(C=C3)N=CN(C4=O)C [AZ628] + Nc1ncn([C@H]2C[C@H](O)[C@@H](CO)O2)c(=O)n1 [Decitabine] (partner 2 µM)
Method in brief: as §1

[3] = compound: CC1=C(C=C(C=C1)NC(=O)C2=CC(=CC=C2)C(C)(C)C#N)NC3=CC4=C(C=C3)N=CN(C4=O)C [AZ628] + CCNC(=O)c1noc(-c2cc(C(C)C)c(O)cc2O)c1-c1ccc(CN2CCOCC2)cc1 [Luminespib] (partner 0.01 µM)
Method in brief: as §1

[4] = compound: C1CC2=C(C1)C=C(C=C2)OC3=NC(=C4C(=N3)N(C=N4)CC5=CC=C(C=C5)C6=CC=CC=C6)N[C@@H](CC7=CC=CC=C7)CO [QS11] + CC(C)C[C@H](NC(=O)[C@H](Cc1ccccc1)NC(=O)c1cnccn1)B(O)O [Bortezomib] (partner 0.002 µM)
Method in brief: as §1

LCLC-97TM1
relative viability ([1]; first compound 0.08 µM): 0.201
relative viability ([1]; first compound 0.253 µM): 0.183
relative viability ([1]; first compound 0.8 µM): 0.203
relative viability ([1]; first compound 2.53 µM): 0.141
relative viability ([1]; first compound 8 µM): 0.12
relative viability ([2]; first compound 0.08 µM): 0.276
relative viability ([2]; first compound 0.253 µM): 0.265
relative viability ([2]; first compound 0.8 µM): 0.257
relative viability ([2]; first compound 2.53 µM): 0.199
relative viability ([2]; first compound 8 µM): 0.13
relative viability ([3]; first compound 0.08 µM): 0.804
relative viability ([3]; first compound 0.253 µM): 0.659
relative viability ([3]; first compound 0.8 µM): 0.642
relative viability ([3]; first compound 2.53 µM): 0.464
relative viability ([3]; first compound 8 µM): 0.287
relative viability ([4]; first compound 0.253 µM): 0.971
relative viability ([4]; first compound 0.8 µM): 0.611
relative viability ([4]; first compound 2.53 µM): 0.537
relative viability ([4]; first compound 8 µM): 1.18
